# Results: patent US9453026B2, “ACC inhibitors and uses thereof” (Gilead Apollo, Inc., priority 2011, dated 2016)
# Molecular target: ACC2 (Homo sapiens, UniProt O00763)
# Assay: In vitro ACC2 inhibition assay (ADP-Glo)
# Format: biochemical
# Details: read-out: ACC2
# In short: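 Enzyme (human ACC1 or ACC2) and compound, serially diluted 1:3 over 11 points from a 600 uM DMSO stock, were preincubated 15 min before substrate addition.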
# Sequence of ACC2 (O00763 whole entry, species assumed): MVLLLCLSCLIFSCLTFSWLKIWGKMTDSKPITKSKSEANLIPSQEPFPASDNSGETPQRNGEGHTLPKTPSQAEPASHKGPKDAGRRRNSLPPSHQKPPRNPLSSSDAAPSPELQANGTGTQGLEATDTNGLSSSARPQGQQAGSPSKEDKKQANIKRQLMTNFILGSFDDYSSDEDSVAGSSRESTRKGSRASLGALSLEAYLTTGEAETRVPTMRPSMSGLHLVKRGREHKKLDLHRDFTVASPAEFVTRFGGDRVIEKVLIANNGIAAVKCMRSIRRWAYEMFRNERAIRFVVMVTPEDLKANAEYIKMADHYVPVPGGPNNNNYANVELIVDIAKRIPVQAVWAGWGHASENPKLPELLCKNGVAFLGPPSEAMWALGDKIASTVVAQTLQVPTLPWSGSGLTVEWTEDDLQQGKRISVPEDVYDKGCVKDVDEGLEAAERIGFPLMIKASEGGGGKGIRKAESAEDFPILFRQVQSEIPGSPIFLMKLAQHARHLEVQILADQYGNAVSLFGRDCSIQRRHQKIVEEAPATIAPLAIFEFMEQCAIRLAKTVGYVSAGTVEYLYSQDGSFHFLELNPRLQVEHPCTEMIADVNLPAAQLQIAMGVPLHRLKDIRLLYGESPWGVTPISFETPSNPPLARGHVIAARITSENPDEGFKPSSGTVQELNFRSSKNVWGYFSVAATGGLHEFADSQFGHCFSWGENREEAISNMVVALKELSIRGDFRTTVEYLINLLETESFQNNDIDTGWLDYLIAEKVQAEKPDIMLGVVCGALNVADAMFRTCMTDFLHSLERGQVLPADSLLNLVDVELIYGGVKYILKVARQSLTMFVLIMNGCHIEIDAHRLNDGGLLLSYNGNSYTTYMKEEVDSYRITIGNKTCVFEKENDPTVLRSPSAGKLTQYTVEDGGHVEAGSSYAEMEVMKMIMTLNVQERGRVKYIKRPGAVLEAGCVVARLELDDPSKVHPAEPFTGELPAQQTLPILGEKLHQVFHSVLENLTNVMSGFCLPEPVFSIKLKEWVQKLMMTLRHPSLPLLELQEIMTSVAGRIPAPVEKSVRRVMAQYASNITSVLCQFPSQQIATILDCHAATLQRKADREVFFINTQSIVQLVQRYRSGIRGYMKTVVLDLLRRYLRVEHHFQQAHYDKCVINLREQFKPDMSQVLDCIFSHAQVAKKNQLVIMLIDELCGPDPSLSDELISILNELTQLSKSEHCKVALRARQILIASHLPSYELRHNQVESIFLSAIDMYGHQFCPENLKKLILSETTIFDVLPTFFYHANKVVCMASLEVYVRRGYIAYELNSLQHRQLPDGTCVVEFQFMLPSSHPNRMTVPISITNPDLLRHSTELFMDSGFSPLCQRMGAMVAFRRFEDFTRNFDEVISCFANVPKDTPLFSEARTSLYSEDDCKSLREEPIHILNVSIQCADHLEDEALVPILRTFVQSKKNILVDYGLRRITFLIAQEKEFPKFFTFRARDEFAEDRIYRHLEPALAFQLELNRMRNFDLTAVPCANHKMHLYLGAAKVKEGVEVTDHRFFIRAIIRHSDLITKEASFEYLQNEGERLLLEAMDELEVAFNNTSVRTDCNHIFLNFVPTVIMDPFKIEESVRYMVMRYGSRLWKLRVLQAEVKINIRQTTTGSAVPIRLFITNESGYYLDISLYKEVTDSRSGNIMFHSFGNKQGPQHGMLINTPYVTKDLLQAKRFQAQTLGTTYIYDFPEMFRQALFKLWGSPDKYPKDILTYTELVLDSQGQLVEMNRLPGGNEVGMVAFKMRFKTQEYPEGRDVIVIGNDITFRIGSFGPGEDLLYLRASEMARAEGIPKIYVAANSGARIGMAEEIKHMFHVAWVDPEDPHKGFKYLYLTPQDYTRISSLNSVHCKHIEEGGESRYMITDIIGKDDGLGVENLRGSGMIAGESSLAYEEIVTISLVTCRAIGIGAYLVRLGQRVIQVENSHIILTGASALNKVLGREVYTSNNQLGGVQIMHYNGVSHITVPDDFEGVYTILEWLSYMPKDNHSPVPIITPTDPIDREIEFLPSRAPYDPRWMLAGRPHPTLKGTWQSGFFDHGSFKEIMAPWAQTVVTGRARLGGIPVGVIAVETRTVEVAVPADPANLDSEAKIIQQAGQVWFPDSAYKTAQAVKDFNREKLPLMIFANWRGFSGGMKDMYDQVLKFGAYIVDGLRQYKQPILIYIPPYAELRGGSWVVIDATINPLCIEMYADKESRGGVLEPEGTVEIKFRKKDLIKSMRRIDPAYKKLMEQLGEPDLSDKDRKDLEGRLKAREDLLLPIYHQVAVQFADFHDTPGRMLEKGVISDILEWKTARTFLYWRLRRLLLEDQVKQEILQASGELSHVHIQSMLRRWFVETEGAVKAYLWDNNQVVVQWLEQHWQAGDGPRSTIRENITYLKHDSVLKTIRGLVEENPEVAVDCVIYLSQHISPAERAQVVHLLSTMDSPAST
row,IC50 [µM],SMILES
1,< 5,"Cc1c(-n2cccn2)sc2c1c(=O)n(C(C)(C)C(=O)O)c(=O)n2CCc1ccccc1 [I-116, 2-methyl-2-[5-methyl-2,4-dioxo-1-(2-phenylethyl)-6-(1H-pyrazol-1-yl)-1H,2H,3H,4H-thieno[2,3-d]pyrimidin-3-yl]propanoic acid]"
2,< 5,"COc1ccccc1[C@H](Cn1c(=O)n(CC(N)=O)c(=O)c2c(C)c(Br)sc21)OC1CCOCC1 [I-285, 2-[6-bromo-1-[(2R)-2-(2-methoxyphenyl)-2-(oxan-4-yloxy)ethyl]-5-methyl-2,4-dioxo-1H,2H,3H,4H-thieno[2,3-d]pyrimidin-3-yl]acetamide]"
3,5 to 20,"Cc1c(-c2ncco2)sc2c1c(=O)n(C(C)(C)C(=O)O)c(=O)n2C[C@@H](OCC(F)(F)F)c1ccccc1 [I-138, (S)-2-methyl-2-(5-methyl-6-(oxazol-2-yl)-2,4-dioxo-1-(2-phenyl-2-(2,2,2-trifluoroethoxy)ethyl)-1,2-dihydrothieno[2,3-d]pyrimidin-3(4H)-yl)propanoic acid]"
4,< 1,"Cc1c(-c2ncco2)sc2c1c(=O)n(C(C)(C)C(=O)O)c(=O)n2C[C@H](Oc1ccc(F)cc1)c1ccccc1 [I-149, (R)-2-(1-(2-(4-fluorophenoxy)-2-phenylethyl)-5-methyl-6-(oxazol-2-yl)-2,4-dioxo-1,2-dihydrothieno[2,3-d]pyrimidin-3(4H)-yl)-2-methylpropanoic acid]"
5,< 5,"Cc1c(-c2ncco2)sc2c1c(=O)n(C(C)(C)C(=O)O)c(=O)n2CCOC(C)C [I-234, 2-methyl-2-[5-methyl-6-(1,3-oxazol-2-yl)-2,4-dioxo-1-[2-(propan-2-yloxy)ethyl]-1H,2H,3H,4H-thieno[2,3-d]pyrimidin-3-yl]propanoic acid]"
6,< 1,"Cc1c(-c2ncco2)sc2c1c(=O)n(C(C)(C)C(=O)O)c(=O)n2C[C@H](OCC1CCCO1)c1ccccc1 (stereo partly drawn) [I-146, 2-methyl-2-[5-methyl-6-(1,3-oxazol-2-yl)-2,4-dioxo-1-[(2R)-2-(oxolan-2-ylmethoxy)-2-phenylethyl]-1H,2H,3H,4H-thieno[2,3-d]pyrimidin-3-yl]propanoic acid]"

# Continued, molecule first:
row,SMILES,IC50 [µM]
1,"CCCOC(=O)c1sc2c(c1C)c(=O)n(CC(=O)O)c(=O)n2CCc1ccccc1 [I-68, 2-[5-methyl-2,4-dioxo-1-(2-phenylethyl)-6-(propoxycarbonyl)-1H,2H,3H,4H-thieno[2,3-d]pyrimidin-3-yl]acetic acid]",5 to 20
2,"CCOCc1sc2c(c1C)c(=O)n(CCO)c(=O)n2CCc1ccccc1 [I-38, 6-(ethoxymethyl)-3-(2-hydroxyethyl)-5-methyl-1-(2-phenylethyl)-1H,2H,3H,4H-thieno[2,3-d]pyrimidine-2,4-dione]",> 50
3,"CCOC(=O)c1sc2c(c1C)c(=O)n(C(C)(C)C(N)=O)c(=O)n2CCc1ccccc1 [I-107, ethyl 3-(1-carbamoyl-1-methylethyl)-5-methyl-2,4-dioxo-1-(2-phenylethyl)-1H,2H,3H,4H-thieno[2,3-d]pyrimidine-6-carboxylate]",< 5
4,"CCOC(=O)c1sc2c(c1C)c(=O)n(CC(=O)O)c(=O)n2Cc1ccc2[nH]ccc2c1 [I-90, 2-[6-(ethoxycarbonyl)-1-(1H-indol-5-ylmethyl)-5-methyl-2,4-dioxo-1H,2H,3H,4H-thieno[2,3-d]pyrimidin-3-yl]acetic acid]",20 to 50
5,"Cc1c(-c2ncco2)sc2c1c(=O)n(CC(=O)O)c(=O)n2CCc1ccccc1 [I-92, 2-[5-methyl-6-(1,3-oxazol-2-yl)-2,4-dioxo-1-(2-phenylethyl)-1H,2H,3H,4H-thieno[2,3-d]pyrimidin-3-yl]acetic acid]",< 5
6,"CCOC(=O)c1sc2c(c1C)c(=O)n(C(C)(C)C(=O)O)c(=O)n2C[C@@H](OC)c1ccccc1 [I-111, 2-[6-(ethoxycarbonyl)-1-[(2S)-2-methoxy-2-phenylethyl]-5-methyl-2,4-dioxo-1H,2H,3H,4H-thieno[2,3-d]pyrimidin-3-yl]-2-methylpropanoic acid]",5 to 20
